In patent US9751886B2, “4-amino-6-phenyl-6,7-dihydro[1,2,3]triazolo[1,5-A]pyrazine derivatives as inhibitors of beta-secretase (BACE)” (Janssen Pharmaceutica NV, priority 2013, dated 2017):

How the values were obtained:
[1] = biological target: recombinant BACE2 protein (Homo sapiens (Human), UniProt Q9Y5Z0); assay: BACE2 Biochemical FRET based assay; conditions: 0.4 μg/ml BACE2, 10 μM substrate, 450 min, pH 5.0
Source text: (§1) This assay is a Fluorescence Resonance Energy Transfer Assay (FRET) based assay. The substrate for this assay contains the ‘Swedish’ Lys-Met/Asn-Leu mutation of the amyloid precursor protein (APP) beta-secretase cleavage site. This substrate also contains two fluorophores: (7-methoxycoumarin-4-yl) acetic acid (Mca) is a fluorescent donor with excitation wavelength at 320 nm and emission at 405 nm and 2,4-Dinitrophenyl (Dnp) is a proprietary quencher acceptor. […] Upon cleavage by the beta-secretase, the fluorophore Mca is separated from the quenching group Dnp, restoring the full fluorescence yield of the donor. The increase in fluorescence is linearly related to the rate of proteolysis.
Briefly in a 384-well format recombinant BACE2 protein in a final concentration of 0.4 μg/ml is incubated for 450 minutes at room temperature with 10 μM substrate in incubation buffer (50 mM Citrate buffer pH 5.0, 0.05% PEG, no DMSO) in the absence or presence of compound. Next the amount of proteolysis is directly measured by fluorescence measurement at T=0 and T=450 (excitation at 320 nm and emission at 405 nm). Results are expressed in RFU (Relative Fluorescence Units), as difference between T450 and TO.

[2] = biological target: recombinant BACE1 protein (Homo sapiens (Human), UniProt P56817); assay: BACE1 Biochemical FRET based assay - Method 2; conditions: 0.04 μg/ml BACE1, 20 μM substrate, 450 min, pH 5.0
Source text: as §1, with “this assay is an APP derived 13 amino acids peptide that contains the” for “this assay contains the”, “cleavage by BACE1, the fluorophore” for “cleavage by the beta-secretase, the fluorophore”
Briefly in a 384-well format recombinant BACE1 protein in a final concentration of 0.04 μg/ml is incubated for 450 minutes at room temperature with 20 μM substrate in incubation buffer (50 mM Citrate buffer pH 5.0, 0.05% PEG) in the presence of compound or DMSO. Next the amount of proteolysis is directly measured by fluorescence measurement (excitation at 320 nm and emission at 405 nm) at different incubation times (0, 30, 60, 90, 120 and 450 min). For every experiment a time curve (every 30 min between 0 min and 120 min) is used to determine the time where we find the lowest basal signal of the high control. The signal at this time (Tx) is used to subtract from the signal at 450 min. Results are expressed in RFU, as difference between T450 and Tx.

[3] = tested on: Abeta 1-42 secreted by human neuroblastoma SKNBE2 cells expressing wild type hAPP695; assay: BACE1 cellular αLisa assay in SKNBE2 cells, Abeta 1-42; assay type: cell-based; conditions: Homo sapiens, 18 hours incubation, read-out: Cellular αLisa assay in SKNBE2 cells Abeta 42 pIC50 (converted)
Method: In two αLisa assays the levels of Abeta total and Abeta 1-42 produced and secreted into the medium of human neuroblastoma SKNBE2 cells are quantified. The assay is based on the human neuroblastoma SKNBE2 expressing the wild type Amyloid Precursor Protein (hAPP695). The compounds are diluted and added to these cells, incubated for 18 hours and then measurements of Abeta 1-42 and Abeta total are taken. Abeta total and Abeta 1-42 are measured by sandwich αLisa. αLisa is a sandwich assay using biotinylated antibody AbN/25 attached to streptavidin coated beads and antibody Ab4G8 or cAb42/26 conjugated acceptor beads for the detection of Abeta total and Abeta 1-42 respectively. In the presence of Abeta total or Abeta 1-42, the beads come into close proximity. The excitation of the donor beads provokes the release of singlet oxygen molecules that trigger a cascade of energy transfer in the acceptor beads, resulting in light emission.

Chain of recombinant BACE1 protein (P56817 46-501): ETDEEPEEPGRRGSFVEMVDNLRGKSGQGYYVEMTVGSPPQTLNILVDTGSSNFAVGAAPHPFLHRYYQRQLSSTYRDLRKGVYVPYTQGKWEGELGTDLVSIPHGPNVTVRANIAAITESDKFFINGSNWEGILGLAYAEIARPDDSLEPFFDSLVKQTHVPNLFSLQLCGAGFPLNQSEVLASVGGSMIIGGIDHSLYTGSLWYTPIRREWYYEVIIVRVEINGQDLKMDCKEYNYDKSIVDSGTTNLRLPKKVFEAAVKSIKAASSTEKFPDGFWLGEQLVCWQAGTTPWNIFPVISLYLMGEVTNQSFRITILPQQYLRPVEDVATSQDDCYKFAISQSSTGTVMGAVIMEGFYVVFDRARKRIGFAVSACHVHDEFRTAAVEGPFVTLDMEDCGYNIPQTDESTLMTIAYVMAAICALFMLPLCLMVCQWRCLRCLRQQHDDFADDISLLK
Chain of recombinant BACE2 protein (Q9Y5Z0 63-518): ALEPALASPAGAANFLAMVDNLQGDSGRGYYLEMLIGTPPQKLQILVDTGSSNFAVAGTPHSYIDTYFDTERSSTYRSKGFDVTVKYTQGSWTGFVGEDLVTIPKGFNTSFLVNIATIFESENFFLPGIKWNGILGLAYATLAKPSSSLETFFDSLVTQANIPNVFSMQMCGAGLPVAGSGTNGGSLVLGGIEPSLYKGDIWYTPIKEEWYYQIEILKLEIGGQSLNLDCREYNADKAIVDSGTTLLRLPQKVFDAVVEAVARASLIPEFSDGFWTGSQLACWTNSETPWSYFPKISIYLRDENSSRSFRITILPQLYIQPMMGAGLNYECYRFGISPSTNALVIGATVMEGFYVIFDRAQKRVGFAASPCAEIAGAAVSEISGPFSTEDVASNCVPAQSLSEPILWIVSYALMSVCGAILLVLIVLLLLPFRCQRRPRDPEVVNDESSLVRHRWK

BACE2 Biochemical FRET based assay pIC50 [1]: 8.48
BACE1 Biochemical FRET based assay - Method 2 pIC50 [2]: 8.37
IC50 [3]: 4.47 nM
SMILES: C[C@@]1(c2cc(NC(=O)c3ccc(F)cn3)ccc2F)Cn2nncc2C(N)=N1 [Compound 1, N-{3-[(6R)-4-amino-6-methyl-6,7-dihydro[1,2,3]triazolo[1,5-a]pyrazin-6-yl]-4-fluorophenyl}-5-fluoropyridine-2-carboxamide]
